According to ChEMBL document CHEMBL3638579, “Arylamino purine derivatives, preparation method and pharmaceutical use thereof” (2015):

Target: Vascular endothelial growth factor receptor 2 (Homo sapiens, UniProt P35968)
Assay: Inhibition Assay: The object of this assay was to test the inventive compounds for the kinase inhibitory activity in vitro. In this assay, an isotopic labeling method was used to label the gamma phosphate group on ATP. EGFR (including wild type, L858R mutant type and L858R/T790M double mutant type), VEGFR2, ALK, BTK, c-KIT, c-SRC, MET, PDGFRalpha and FLT3 kinases were tested in vitro for the activity inhibition. Staurosporine was used as a reference molecule (or referred to as a positive control). […] The IC50 value can be obtained by the calculation of the inhibitory rates at a series of different concentrations of the tested compounds. 1. Materials: 20mM 3-(N-morpholinyl)propylsulfonic acid (MOPS); 1mM Ethylenediaminetetraacetic acid (EDTA); 0.01% Polyethylene glycol lauryl ether (Brij-35).

Vascular endothelial growth factor receptor 2, sequence (P35968 20-1356 limits assumed, stated change not applied): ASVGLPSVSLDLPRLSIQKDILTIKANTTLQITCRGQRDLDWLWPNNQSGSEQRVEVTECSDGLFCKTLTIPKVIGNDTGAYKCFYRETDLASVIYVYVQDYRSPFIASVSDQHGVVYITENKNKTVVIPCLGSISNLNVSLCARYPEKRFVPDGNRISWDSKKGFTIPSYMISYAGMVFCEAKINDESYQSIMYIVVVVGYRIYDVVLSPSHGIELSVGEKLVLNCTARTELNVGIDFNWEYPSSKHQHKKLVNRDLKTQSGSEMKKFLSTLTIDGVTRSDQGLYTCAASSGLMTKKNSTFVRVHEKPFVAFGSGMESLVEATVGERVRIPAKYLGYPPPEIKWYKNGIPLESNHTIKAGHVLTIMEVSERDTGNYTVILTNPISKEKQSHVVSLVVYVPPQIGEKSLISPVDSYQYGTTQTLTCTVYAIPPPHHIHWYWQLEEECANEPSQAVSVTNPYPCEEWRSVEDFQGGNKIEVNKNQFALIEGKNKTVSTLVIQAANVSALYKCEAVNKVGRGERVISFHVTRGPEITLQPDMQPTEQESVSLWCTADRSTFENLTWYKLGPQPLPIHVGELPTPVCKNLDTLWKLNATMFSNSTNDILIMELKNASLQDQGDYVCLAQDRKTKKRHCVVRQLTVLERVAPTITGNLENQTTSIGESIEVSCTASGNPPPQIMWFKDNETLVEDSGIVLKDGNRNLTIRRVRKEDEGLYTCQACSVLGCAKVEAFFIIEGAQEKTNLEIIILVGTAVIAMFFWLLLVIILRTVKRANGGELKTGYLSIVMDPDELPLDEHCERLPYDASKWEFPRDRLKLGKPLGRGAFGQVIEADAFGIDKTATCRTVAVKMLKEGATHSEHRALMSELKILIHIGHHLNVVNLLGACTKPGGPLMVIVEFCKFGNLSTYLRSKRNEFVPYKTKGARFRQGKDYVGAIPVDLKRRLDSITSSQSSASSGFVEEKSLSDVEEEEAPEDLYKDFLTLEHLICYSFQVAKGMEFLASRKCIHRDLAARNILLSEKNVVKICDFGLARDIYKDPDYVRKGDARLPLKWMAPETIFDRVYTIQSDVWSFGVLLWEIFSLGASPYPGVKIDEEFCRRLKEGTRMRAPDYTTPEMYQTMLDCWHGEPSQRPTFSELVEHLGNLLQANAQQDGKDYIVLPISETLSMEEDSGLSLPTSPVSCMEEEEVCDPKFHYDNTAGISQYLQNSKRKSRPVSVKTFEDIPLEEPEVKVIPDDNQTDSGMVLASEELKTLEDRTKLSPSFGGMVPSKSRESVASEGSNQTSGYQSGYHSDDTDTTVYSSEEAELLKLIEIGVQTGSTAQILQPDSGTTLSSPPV

CC(C)n1c(Nc2ccccc2)nc2cnc(Nc3ccc(C(=O)NN4CCN(C)CC4)cc3F)nc21
IC50: > 1 µM
